The numbers were not newly measured in patent US5183829A, “Oral liquid compositions of non-steroidal anti-inflammatory drugs” (priority 1991, dated 1993), which cites them from elsewhere.

For the data set the following is noted: enteric coated tablet vs aqueous solution.

Regarding `O=C(O)Cc1ccccc1Nc1c(Cl)cccc1Cl` [sodium diclofenac], the oral bioavailability entry is “more bioavailable orally from an enteric coated tablet than from an aqueous solution”.
